US20080119561A1, “METHODS FOR PREVENTING OR DELAYING CATHETER- BASED RESVASCULARIZATION” (Pfizer Inc, priority 1998, published 2008)

Tests used:
[1] = test system: subjects and patients; conditions: over 400 subjects and patients; cited from earlier work
[2] = test system: cholesterol-fed male New Zealand White rabbits; conditions: 8 weeks, compared to progression controls; cited from earlier work
[3] = test system: patients with CAD and LDL-C≧130 mg/dL; conditions: atorvastatin 80 mg
Method: This is an 18-month, open-label, randomized, multicenter study in 341 patients with elevated LDL-C (≧130 mg/dL whether or not they are receiving lipid-lowering medication) who have had angiography. […] Patients must be Class I or II based on the Canadian Cardiovascular Society classification of angina severity, and must be able to complete 4 minutes of a Bruce protocol treadmill test, or a 20-W/min supine bicycle exercise test.
The study is conducted in patients with LDL-C≧130 mg/dL and TG≦400 mg/dL who have asymptomatic or mildly to moderately symptomatic CAD (with or without antianginal therapy) and in whom a recanalization procedure is recommended. “Usual care” represents a heterogeneous mix of therapies that may include calcium channel blocker use or lipid-lowering therapy (including diet, behavior modification or antihyperlipidemic medication). Patients who have undergone angiography, or are about to undergo angiography, will be considered for this study based on the results of the angiogram and other inclusion criteria. The study will be performed using a common protocol at all study sites. […]
All patients will be randomized to either Group 1 or Group 2 according to a randomization code. […] Usual care will be determined by the investigator or the patient's primary physician (or whoever typically decides the patient's follow-up care) as he or she sees fit. […]

[4] = test system: hypercholesterolemic patients; conditions: 2.5 to 80 mg/day, 6 weeks; cited from earlier work

CC(C)c1c(C(=O)Nc2ccccc2)c(-c2ccccc2)c(-c2ccc(F)cc2)n1CC[C@@H](O)C[C@@H](O)CC(=O)O [atorvastatin]
most frequently occurring adverse events [1]: headache, infection (mostly colds), constipation, and back pain
percentage of discernible thoracic aortic lesions [2]: reduced
reduction of extracellular matrix and smooth muscle cell area [2]: 63%
reduction of size of iliac-femoral lesions [2]: approximately 68%
patients who encountered an adverse heart event ([3]; over 18 months, angioplasty group 21%): 13%
LDL cholesterol on treatment, average ([3]; from 140 mg/dL before treatment): 77 mg/dL
HDL-C, apolipoprotein AI (apo AI) or Lp (a) [4]: No significant changes
apolipoprotein B (apo B) [4]: significantly reduced
drug-related serious adverse events [4]: no drug-related serious adverse events
reduction of TG levels [4]: up to 32%
total cholesterol [4]: significantly reduced
